The values below come from BindingDB's records for doi:10.1074/jbc.M113.493767 (Novartis Institute For Tropical Diseases, 2013).

This experiment has as its target ATP-dependent Clp protease ATP-binding subunit ClpC1 (Mycobacterium tuberculosis (strain ATCC 25618 / H37Rv), UniProt P9WPC9). As to the kind of experiment: Isothermal Titration Calorimetry (ITC). Particulars: pH 7.5; 25 °C. As for the experimental part: Isothermal titration calorimetry experiments were performed using an iTC200 (GEHealthcare) at 25 °C, with 15-20 μM ClpC1 (in 20 mM Tris-HCl, pH 7.5, 300 mM NaCl, 1 mM EDTA, 1 mM Tris(2-carboxyethyl) phosphine, 9% DMSO) in the sample cell. Typically, 19 injections of 2 μl of 150-200 μM CymA1 solution in the same bufferwere injected into the sample cell at 2.5-min intervals.

Structures are written as SMILES. Numbered stars: 1 amine (or outer) side, 2 acyl side, 3 side chain; on linkers, the order of the positions; unused ones are H or OH. Square brackets hold non-standard residues; d marks the D form. Peptide text beside a SMILES is read from it. X1 = CC(C)([C@@H](O)CNCCCN)n1cc([C@@H](O)[C@H](N[*:1])C(=O)[*:2])c2ccccc21; Ala(3R-Me,3-isobutenyl) = CC(C)=C[C@@H](C)[C@H](N)C(=O)O; NMeLeu(5-OH,4R) = CN[C@@H](C[C@@H](C)CO)C(=O)O; Phe(βR-OMe) = CO[C@H](c1ccccc1)[C@H](N)C(=O)O; NMeL = CN[C@@H](CC(C)C)C(=O)O

The term Kd denotes the free concentration of one partner at which half of the binding sites on the other are occupied at equilibrium, for simple one-to-one binding. Low values mean higher affinity, high ones lower affinity.

Chain of ATP-dependent Clp protease ATP-binding subunit ClpC1 (P9WPC9 whole entry): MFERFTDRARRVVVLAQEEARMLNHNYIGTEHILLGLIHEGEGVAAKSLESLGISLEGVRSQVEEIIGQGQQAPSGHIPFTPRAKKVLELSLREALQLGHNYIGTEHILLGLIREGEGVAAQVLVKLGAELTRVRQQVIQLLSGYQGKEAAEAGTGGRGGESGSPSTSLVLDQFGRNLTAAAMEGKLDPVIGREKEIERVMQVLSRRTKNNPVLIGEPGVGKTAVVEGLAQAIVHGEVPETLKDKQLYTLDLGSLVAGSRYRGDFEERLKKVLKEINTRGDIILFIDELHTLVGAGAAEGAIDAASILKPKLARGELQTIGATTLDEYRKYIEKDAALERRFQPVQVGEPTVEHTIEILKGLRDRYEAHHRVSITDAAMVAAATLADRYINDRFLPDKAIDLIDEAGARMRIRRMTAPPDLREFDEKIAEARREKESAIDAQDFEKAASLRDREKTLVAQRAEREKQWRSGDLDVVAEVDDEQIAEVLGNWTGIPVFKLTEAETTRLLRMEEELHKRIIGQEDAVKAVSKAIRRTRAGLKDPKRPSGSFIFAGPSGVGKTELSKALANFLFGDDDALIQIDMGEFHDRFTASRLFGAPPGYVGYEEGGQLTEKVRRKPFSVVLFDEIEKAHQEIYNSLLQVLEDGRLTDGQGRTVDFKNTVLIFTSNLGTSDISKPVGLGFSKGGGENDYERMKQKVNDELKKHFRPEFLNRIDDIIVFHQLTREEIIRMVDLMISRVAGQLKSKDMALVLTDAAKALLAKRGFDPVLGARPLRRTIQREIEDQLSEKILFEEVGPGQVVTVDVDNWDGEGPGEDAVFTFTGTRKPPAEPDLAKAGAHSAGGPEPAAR

Take `CO[C@H](c1ccccc1)[C@@H]1NC(=O)[C@H](C)NC(=O)[C@H](C[C@@H](C)CO)N(C)C(=O)[C@H]([C@H](O)c2cn(C(C)(C)[C@@H](O)CNCCCN)c3ccccc23)NC(=O)[C@H]([C@H](C)C=C(C)C)NC(=O)[C@H](CC(C)C)N(C)C(=O)[C@H](C(C)C)NC1=O` [Cyclomarin A1 (CymA1)] (cyclo(A[Phe(βR-OMe)]V[NMeL][Ala(3R-Me,3-isobutenyl)][X1][NMeLeu(5-OH,4R)])): binding was put at a Kd of 17.5 nM.
